Bounds are passed on as bounds.

LD50 and mortality data for six compounds are collected here from US4000269A, “S-(α-substituted-arylmethylthio, -arylmethylsulfinyl, and -arylmethylsulfonyl)methyl phosphorus esters used as insecticides” (priority 1975, dated 1976).

A short description of series [1]: Mammalian Toxicity Studies (LD50 for Rats). On the set-up: species or system male albino rats (Carworth Farms Nelson strain). As to conditions: rat, in vivo; 14-day observation; corn oil. The procedure: Twenty male albino rats or mice of the Carworth Farms Nelson strain (CFI strain for mice)(or other suitable strain) weighing approximately 90 to 120 grams (18-20g. for mice) are selected. Basically, these animals are fasted 24 hours before dosing. Mice are not fasted.
For materials which are soluble or easily dispersed in an aqueous medium, a 20% solution or suspension is prepared in an aqueous solution of 0.2% agar and 0.1% "Tween" 80. The same series of dosages (grams or milliliters of material per kilogram of animal body weight) are used for all materials in this test. If no previous information is available on the compound or its analogs, a maximum dosage of 10 g/kg is selected to differ by a geometric factor of 2 from the preceding dose, i.e., 10, 5, 2.5, 1.25 g/kg. A sufficient number of dosages are given so as to bracket a 50% response. The animals are observed for several hours after dosing and daily over a 14-day observation period. At the end of this period the survivors are sacrificed, weighed and subjected to a gross autopsy. The results are tabulated and the LD50 is calculated by the method of moving averages using the tables constructed by Weil. [Weil, C. S., Biometrics, 8: (3), 249-263, 1952].
Samples received as liquids may be administered undiluted or as suspensions in aqueous Agar-Tween, depending on the viscosity of the material. If the material is believed to be relatively non-toxic, an initial maximum dosage of 10 ml/kg is selected and subsequent dosages are selected based upon the severity of gross signs of toxicity.
For organic phosphate anticholinesterase insecticides, the procedure is modified somewhat. The phosphates are readied for administration by preparing a solution or dispersion in corn oil (Mazola), the concentration of which is adjusted so that the total volume of the dose is 20 ml/kg ([…]) in every case. The initial solution is prepared by deciding upon the maximum dosage in mg/kg to be administered and preparing 50 ml. (10 in mouse test) of this solution of such a concentration that the desired dosage in mg/kg is delivered when 2 ml. (0.5 ml. in mouse test) of the solution is administered for 100 g (20 g in mouse) of rat body weight. Serial dilutions differing by a factor of two are then prepared for each lower dosage level.

In series [2] the test system is Southern corn rootworm larvae (Diabrotica undecimpunctata). Briefly: Southern Corn Rootworm Control (treated soil, dust on talc). Type of series: in vivo. As to conditions: 144 h, potting soil, mortality after 6 days, read-out: Percent Control of Southern Corn Rootworm Larvae; for mortality at 1120.85 g/ha: 1 lbs./Acre; for mortality at 11208.5 g/ha: 10 lbs./Acre; for mortality at 56042.5 g/ha: 50 lbs./Acre. The procedure: Compounds are prepared as dusts on talc. The compounds are dissolved in acetone, and appropriate rates obtained by serial dilution. One and one-quarter milliliters of solution is pipetted onto a standard volume of dust in 1 -ounce jars, and the acetone allowed to evaporate. Twenty-five milliliters of moist soil and about 200 millet seeds are placed in the jar, capped and the contents thoroughly mixed. Ten second-instar larvae of the Southern corn rootworm (Diabrotica undecimpunctata ) are then placed in each jar. Mortality counts are made after 6 days and percent mortality determined.

The test system of series [3] is False wireworm larvae (Eleodes suturalis). Description: False Wireworm Control (treated soil, dust on talc). Type of series: in vivo. Particulars: 144 h, potting soil, mortality after 6 days, read-out: Percent Control of False Wireworms. The protocol:
Compounds are prepared as dusts on talc. The compounds are dissolved in acetone, and appropriate rates obtained by serial dilution. One and one-quarter milliliters of solution is pipetted onto a standard volume of dust in 1 -ounce jars, and the acetone allowed to evaporate. Twenty-five milliliters of moist soil and about three wheat seeds are placed in the jar, capped, and the contents thoroughly mixed. Ten False wireworm larvae (Eleodes suturalis ), 10 days old, are then placed in each jar. Mortality counts are made after 6 days and percent mortality determined.

In series [4] the test system is Southern Armyworm (Prodenia eridania). Description: D. Southern Armyworm leaf-dip test. Type of series: in vivo. Particulars: Spodoptera eridania, 48 h, 2 days, read-out: Percent Mortality, Southern Armyworm. The protocol:
Compounds are tested at 1000 and 100 ppm. in solution or suspension in 65 % acetone/35 % water. Sieva lima bean primary leaves are dipped for 3 seconds in the test solution and set in a hood on a screen to dry. When dry, each leaf is placed in a 4 -inch petri dish which has a moist filter paper in the bottom and ten third-instar armyworm larvae about 3/8 inch long. The dishes are covered and held at 80° F., and 60 % R.H. After 2 days, mortality counts and estimates of the amount of feeding are made. Compounds showing partial kill and/or inhibition of feeding are held an extra day for further observations.

Series [5] has as its system Mexican Bean Beetle (Epilachna varivestis). Description: F. Mexican Bean Beetle leaf-dip test. Type of series: in vivo. Particulars: 48 h, 2 days, read-out: Percent Mortality, Mexican Bean Beetle. The protocol: Compounds to be tested are made up as 100 or 10 ppm. solutions in 65 % acetone/35 % water. Sieva lima bean leaves are dipped in the test solution and set in the hood to dry. When dry, they are placed in 4 -inch petri dishes which have a moist filter paper in the bottom, and 10 third-instar bean beetles are added to each dish. The dishes are covered and held at 80° F., 60 % R.H. After 2 days, mortality counts and estimates of the amount of feeding are made. Compounds showing kills greater than 75 % are further tested at tenfold dilutions in 65 % acetone/35 % water.

Series [6] has as its system Two-spotted Spider Mite (Tetranychus urticae). Description: E. Two-spotted Spider Mite plant-dip test. Type of series: in vivo. As to conditions: 48 h, read-out: Percent Mortality, Two-spotted Spider Mite; for mortality at 100 ppm: 2 days. The procedure:
Sieva lima bean plants with primary leaves 3 to 4 inches long are infested with about 100 adult mites per leaf 4 hours before use in this test. The mite and egg infested plants are dipped for 3 seconds in the same solutions used in the aphid test, and the plants set in the hood to dry. They are held for 2 days at 80° F., 60% R.H., and the adult mite mortality estimated on one leaf under a steroscopic microscope. The other leaf is left on the plant an additional 5 days and then examined at 10 X power to estimate the kill of eggs and of newly hatched nymphs, giving a measure of ovicidal and residual action, respectively.

Series [7] relates to Boll Weevil (Anthonomus grandis). Description: B. Boll Weevil leaf-dip test. The series is classed as in vivo. As to conditions: 48 h, 100 ppm., 2 days, read-out: Percent Mortality, Boll Weevil. The procedure: Test compounds are prepared as 1000 ppm. solutions in 10 % acetone, 0.2 % Alrodyne 315 , and 89.8 % water. A tenfold dilution is made with 65 % acetone and 35 % water. The first or second true leaf of young cotton plants is dipped for 3 to 5 seconds in the test solution and placed in an exhaust hood to dry. When dry, each leaf is placed in a 4 -inch petri dish with a moist filter paper on the bottom. Ten adult boll weevils are removed from the stock culture and placed in the petri dish. The dishes are covered and held at 80° F. and 50 % R.H. After 2 days, mortality counts are made.

Series [8] concerns Tarnished Plant Bug (Lygus lineolaris). Description: A. Tarnished Plant Bug leaf-dip test. The series is classed as in vivo. Particulars: 48 h, 100 ppm., 2 days, read-out: Percent Mortality, Tarnished plant Bug. The procedure: Test compounds are prepared as 1000 ppm. solutions in 10 % acetone, 0.2 % Alrodyne 315 , and 89.8 % water. A tenfold dilution is made with 65 % acetone and 35 % water. The primary leaves of Sieva lima bean plants are dipped for 3 to 5 seconds in the test solutions and placed in an exhaust hood to dry. When dry, each leaf is placed in a 4 -inch petri dish with a moist filter paper on the bottom. Ten adult Lygus bugs are aspirated from the stock culture and placed in the petri dish. The dishes are covered and held at 80° F. and 50 % R.H. After 2 days, mortality counts are made.

For the next series, the system named is Bean Aphid (Aphis fabae). Briefly: C. Bean Aphid spray test. The series is classed as in vivo. As to conditions: 48 h, 2 days, read-out: Percent Mortality, Bean Aphid. The procedure:
Compounds are tested at 100 , 10 and 1 ppm. in solution or suspension in 65 % acetone/35 % water. Two-inch fiber pots each containing a nasturtium plant 2 inches high and infested with about 150 aphids 2 days earlier, are placed on a turntable (4 RPM) and sprayed for two revolutions with a No. 154 DeVilbiss Atomizer at 20 psi. air pressure. The spray tip is held about 6 inches from the plants, and the spray is directed so as to give complete coverage of the aphids and the plants. The sprayed plants are laid on their sides on white enamel trays. Mortality estimates are made after holding for 2 days at 70° F. and 50% R.H.

For series [9], the system named is Western Potato Leafhopper (Empoasca abrupta). Description: G. Western Potato Leafhopper plant-dip test. Type of series: in vivo. Particulars: 48 h, 2 days, read-out: Percent Mortality, Western Potato Leafhopper. The protocol:
Sieva lima bean plants with the primary leaf expanded to 3 to 4 inches are dipped into 100 or 10 ppm. 50 % acetone/50 % water solutions and set in the hood to dry. A 1 -inch piece of the tip of a treated leaf is cut off and placed in a 4 -inch petri dish with a moist filter paper in the bottom. From 3 to 10 second-instar nymphs are tapped from the culture plants into the test dish and rapidly covered. Mortality counts are made after 2 days at 80° F., and 50 % R.H.

In series [10] the test system is Malaria Mosquito (Anopheles quadrimaculatus). Briefly: H. Malaria Mosquito Adult Test. Type of series: in vivo. As to conditions: 24 h, adults, 1 day, read-out: Percent Mortality, Malaria Mosquito. The procedure: Solutions of 65% acetone/35% water containing 10 ppm. of test compound are poured into wide-mouth 2-ounce jars, each containing a microscope slide. The slides are removed from the test solution with forceps and laid horizontally to dry on a wide-mouth 4-ounce bottle. When dry, they are placed in the same 4-ounce bottle and 10 4- to 5-day-old mosquitoes of mixed sexes are added to each bottle. A piece of cotton gauze held on by an elastic band serves as a lid, and wad of cotton soaked in 10% honey solution serves as food. Mortality counts are made after 1 day at 80° F., 50% R.H. (relative humidity) Data obtained with the above procedures are reported in Table II below.

With `CCOP(=S)(OCC)SCSC(C)(C)c1ccc(Cl)cc1` [Example 6, S-(p-Chloro-α,α-Dimethylbenzylthio)methyl O,O-Diethyl Phosphorodithioate], in series [1], the LD50 (commonly the dose at which mortality reaches 50%) at 336 h was 79 mg/kg. In series [2], the mortality at 1120.85 g/ha amounted to 0%, the mortality at 11208.5 g/ha amounted to 90% and the mortality at 56042.5 g/ha is 100%.
Regarding `CC(C)OP(=S)(OC(C)C)SCSC(C)(C)c1ccccc1` [Example 20, S-(α,α-Dimethylbenzylthio)methyl O,O-diisopropylPhosphorodithioate], the mortality at 11208.5 g/ha in series [2] and in series [3] (10 lbs./Acre) was 0% throughout. Also, the mortality at 56042.5 g/ha in series [2] and in series [3] (50 lbs./Acre) was 100% throughout.
For the compound `COP(=S)(OC)SCSC(C)(C)c1cccc(Cl)c1Cl` [Example 23, S-(2,3-Dichloro-α,α-dimethylbenzylthio)methyl O,O-Dimethyl Phosphorodithioate], the 50% lethal dose (LD50) at 336 h in series [1] was > 500 mg/kg. In series [2], the mortality at 1120.85 g/ha amounted to 60%, the mortality at 11208.5 g/ha was determined as 90% and the mortality at 56042.5 g/ha came to 100%.
Take `COP(=S)(OC)SCSC(C)(C)c1ccc(Cl)c(Cl)c1` [drawing 21]: the mortality at 100 ppm amounted to 100% in [4]; 30% in series [5]; 100% in [6]; 70% in [7]; 40% in [8]; 100% with Bean Aphid (Aphis fabae). Also, the mortality at 100 ppm in [9] turned out to be 100%. The mortality at 1000 ppm in series [4] came out at 100%. In addition, the mortality at 10 ppm is 0% in series [5], 100% in the series on Bean Aphid (Aphis fabae), 0% in [9] and 67% in series [10]. Moreover, in [6], the mortality at 300 ppm was found to be 100%. In the series on Bean Aphid (Aphis fabae), the mortality at 1 ppm was 98%.
Turning to `COP(=S)(OC)SCSC(C)(C)c1ccc(Cl)cc1` [drawing 22], the mortality at 100 ppm in [4] worked out at 100%; in [5] it was 50%; in series [6] it was 100%; in series [7], 100%; in series [8] it was 0%; in the series on Bean Aphid (Aphis fabae), 100%. The mortality at 100 ppm in [9] turned out to be 100%. Further, the mortality at 1000 ppm in series [4] was determined as 100%. For the same compound, the mortality at 10 ppm turned out to be 0% in series [5], 100% with Bean Aphid (Aphis fabae), 0% in [9] and 100% in series [10]. Further, in [6], the mortality at 300 ppm was 100%. The mortality at 1 ppm in the series on Bean Aphid (Aphis fabae) came to 100%.
On to `COP(=O)(SC)SCSC(C)(C)c1ccc(Cl)cc1` (stereo not drawn) [drawing 23], for which the mortality at 100 ppm came out at 0% in series [4]; 40% in [5]; 0% in [6]; 90% in [7]; 0% in series [8]; 100% with Bean Aphid (Aphis fabae). For the same compound, the mortality at 100 ppm in [9] was 100%. The mortality at 1000 ppm in series [4] came to 100%. Further, the mortality at 10 ppm in [5] stood at 0%; in the series with Bean Aphid (Aphis fabae) it was 100%; in series [9], 0%; in series [10], 0%. The mortality at 300 ppm in [6] stood at 50%. The mortality at 1 ppm with Bean Aphid (Aphis fabae) is 95%.
